Assays:
HCT-116 [1] = assay: IC50 determination by SRB assay (Example 62); type: cell-based; details: Homo sapiens, HCT-116; HCY-116
Description: (§1) 3,000-15,000 cells/well were exposed to the test compounds at a concentration of 1 µM for 48 hours, and cytotoxicty was measured using the SRB assay according to Shekan et al (J Natl Cancer Inst (1990) 82, 1107-112). Briefly, cells were plated in 96 well dishes 24 hours prior to compound addition. The assay was terminated with the addition of cold TCA to a final concentration of 10% and the plates were incubated for one hour at 4°C. The plates were then washed 5 times with water and 100µl of a Sulforhodamine B solution (4%) was added to each well. The plate was then incubated for 10 minutes at room temperature before removal of unbound dye by washing with 1% acetic acid. The bound dye was solubilized with 10 mM Trizma base and the absorbance read at OD570. Inhibitory activity of the compounds was calculated as % inhibition compared to cells treated with the solvent (DMSO). Table 2 represents the growth inhibitory activity of certain compunds of the invention across a number of tumor cell lines.
(§2) The assay was performed similar to example 61. However, test compounds were added at various concentrations, such as from 0.001 to about 0.1 µM, from 0.1 to about 10 µM, or from 1 to about 10 µM, as the need may be, in order to estimate the IC50 values. IC50 values were determined by plotting the percentage inhibitory activity for each concentration, fitting a curve using appropriate software and estimating the concentration at which 50% inhibition of growth would occur.

MCF7 [2] = assay: IC50 determination by SRB assay (Example 62); type: cell-based; details: Homo sapiens
Description: as §1, §2

A-549 [3] = assay: IC50 determination by SRB assay (Example 62); type: cell-based; details: Homo sapiens, A549
Description: as §1, §2

SW-620 [4] = assay: IC50 determination by SRB assay (Example 62); type: cell-based; details: Homo sapiens
Description: as §1, §2

HCT-116 [5] = assay: SRB assay, inhibition of tumor cell growth at 1 µM (Example 61); type: cell-based; details: Homo sapiens, 48 hours
Description: as §1

PC-3 [6] = assay: as above; type: cell-based; details: Homo sapiens, 48 hours
Description: as §1

MCF7 [7] = assay: as above; type: cell-based; details: Homo sapiens, 48 hours
Description: as §1

A-549 [8] = assay: as above; type: cell-based; details: Homo sapiens, A549, 48 hours
Description: as §1

SW-620 [9] = assay: as above; type: cell-based; details: Homo sapiens, 48 hours
Description: as §1

A2780 [10] = assay: as above; type: cell-based, Human; details: Homo sapiens, 48 hours
Description: as §1

A2780 [11] = assay: IC50 determination by SRB assay (Example 62); type: cell-based; details: Homo sapiens
Description: as §1, §2

PC-3 [12] = assay: IC50 determination by SRB assay (Example 62); type: cell-based; details: Homo sapiens
Description: as §1, §2

| Compound | IC50 (HCT-116 [1]) | IC50 (MCF7 [2]) | IC50 (A-549 [3]) | IC50 (SW-620 [4]) | IC50 (A2780 [11]) | IC50 (PC-3 [12]) | inhibition at 1 µM (HCT-116 [5]) | inhibition at 1 µM (PC-3 [6]) | inhibition at 1 µM (MCF7 [7]) | inhibition at 1 µM (A-549 [8]) | inhibition at 1 µM (SW-620 [9]) | inhibition at 1 µM (A2780 [10]) |
| --- | --- | --- | --- | --- | --- | --- | --- | --- | --- | --- | --- | --- |
| O=c1c(NCCCCCCOc2ccccc2)c(Nc2ccncc2)c1=O [SQ-12, 3-(6-Phenoxyhexylamino)-4-(pyridin-4y1-amino)-3-cyclobutene-1,2-dione] | < 20 nM | < 10000 nM | < 2000 nM | – | < 20 nM | – | > 80% | > 50% | > 20% | > 50% | > 20% | > 80% |
| O=c1c(NCCCCCCCc2ccccc2)c(Nc2ccncc2)c1=O [SQ-22, 3-(7-Phenylheptylamino)-4-(pyridin-4-yl-amino)-cyclobut-3-ene-1,2-dione] | < 20 nM | – | – | – | < 20 nM | < 20 nM | > 80% | > 50% | > 20% | > 50% | > 50% | > 80% |
| O=c1c(NCCCCCCSc2ccc(Cl)cc2)c(Nc2ccncc2)c1=O [SQ-27, 3-[6-(4-Chlorophenylsulfanyl)-hexylamino]-4-(pyridin-4-yl-amino)-cyclobut-3-ene-1,2-dione] | < 100 nM | – | < 2000 nM | < 500 nM | – | – | > 80% | > 50% | > 20% | > 50% | > 20% | > 80% |
| O=c1c(NCCC2CCN(Cc3ccccc3)CC2)c(Nc2ccncc2)c1=O [SQ-38, 3-[2-(1-Benzylpiperidin-4-yl)-ethylamino]-4-(pyridin4-yl-amino)-cyclobut-3-ene-1,2-dione] | < 10000 nM | – | – | – | < 10000 nM | < 10000 nM | – | – | – | – | – | – |
| O=c1c(NCCCCCCOc2ccc(CN3CCOCC3)cc2)c(Nc2cccnc2)c1=O [SQ-39, 3-(6-[4-(Morpholinomethyl)-phenoxy]-hexylamino)-4-(pyridin-3-yl-amino)-3-cyclobutene-1,2-dione] | < 20 nM | – | – | – | < 20 nM | < 100 nM | > 80% | > 20% | > 5% | > 50% | > 20% | > 80% |

Further lines, with some results ahead:

| IC50 (HCT-116 [1]) | IC50 (MCF7 [2]) | IC50 (A-549 [3]) | IC50 (SW-620 [4]) | IC50 (A2780 [11]) | IC50 (PC-3 [12]) | Compound | inhibition at 1 µM (HCT-116 [5]) | inhibition at 1 µM (PC-3 [6]) | inhibition at 1 µM (MCF7 [7]) | inhibition at 1 µM (A-549 [8]) | inhibition at 1 µM (SW-620 [9]) | inhibition at 1 µM (A2780 [10]) |
| --- | --- | --- | --- | --- | --- | --- | --- | --- | --- | --- | --- | --- |
| < 100 nM | < 10000 nM | < 500 nM | < 500 nM | – | – | O=c1c(NCCCCCCOc2ccccc2)c(Nc2cccnc2)c1=O [SQ-3] | > 80% | > 50% | > 5% | > 50% | > 50% | > 80% |
| < 100 nM | < 10000 nM | < 500 nM | < 2000 nM | – | – | Cc1ccc(OCCCCCCNc2c(Nc3cccnc3)c(=O)c2=O)cc1 [SQ-4] | > 80% | > 50% | – | > 50% | > 50% | > 80% |
| < 500 nM | – | – | – | < 100 nM | < 500 nM | O=c1c(NCCCCCCOc2cccnc2)c(Nc2ccncc2)c1=O [SQ-16, 3-(Pyridin-4-ylamino)-4-[6-(pyridin-3-yloxy)-hexylamino]-cyclobut-3-ene-1,2-dione] | > 80% | > 20% | > 5% | > 20% | > 20% | > 80% |
| < 20 nM | < 500 nM | < 20 nM | – | < 20 nM | < 20 nM | O=c1c(NCCCCCCOc2ccc(OCCN3CCOCC3)cc2)c(Nc2ccncc2)c1=O [SQ-23, 3-[6-(4-(2-Morpholin-4-yl-ethoxy)-phenoxy)-hexylamino]-4-(pyridin-4-yl-amino)-cyclobut-3-ene-1,2-dione] | > 80% | > 50% | – | > 50% | > 20% | > 80% |
| < 20 nM | – | < 100 nM | < 2000 nM | < 20 nM | < 100 nM | O=c1c(NCCCCCCOc2ccc(OCCN3CCOCC3)cc2)c(Nc2cccnc2)c1=O [SQ-24, 3-[6-(4-(2-Morpholin-4-yl-ethoxy)-phenoxy)-hexylamino]-4-(pyridin-3-yl-amino)-cyclobut-3-ene-1,2-dione] | > 80% | > 50% | > 20% | > 50% | > 20% | > 80% |
| < 10000 nM | – | – | – | < 10000 nM | > 10000 nM | O=c1c(NCc2cccc(COc3ccc(Cl)cc3)c2)c(Nc2cccnc2)c1=O [SQ-35, 3-[3-(4-Chlorophenoxymethyl)-benzylamino]-4-(pyridin-3-yl-amino)-cyclobut-3-ene-1,2-dione] | – | – | – | – | – | – |
| < 2000 nM | – | – | – | < 2000 nM | < 10000 nM | O=c1c(NCCC2CCN(Cc3ccccc3)CC2)c(Nc2cccnc2)c1=O [SQ-37, 3-[2-(1-Benzylpiperidin-4-yl)ethylamino]-4-(pyridin-3-yl-amino)-cyclobut-3-ene-1,2-dione] | – | – | – | – | – | – |

From patent EP1674457B1, “Derivatives of squaric acid with anti-proliferative activity” (GPC Biotech AG, priority 2004, dated 2006)
